Results as given in publication PMC9186491, “Novel Small Molecule Tyrosine Kinase 2 Pseudokinase Ligands Block Cytokine-Induced TYK2-Mediated Signaling Pathways” (Frontiers in Immunology, 2022).
≈ marks a conversion by molar mass, not a printed value. Like-named read-outs stand apart in the source and are kept apart here.

How the values were obtained:
[1] = biological target: JAK2 (Homo sapiens, UniProt O60674); assay: Z'LYTE JAK kinase inhibition assay, JAK2; assay type: biochemical; conditions: read-out: JAK Catalytic Selectivity (IC50) JAK2
JAK2, sequence (O60674 whole entry): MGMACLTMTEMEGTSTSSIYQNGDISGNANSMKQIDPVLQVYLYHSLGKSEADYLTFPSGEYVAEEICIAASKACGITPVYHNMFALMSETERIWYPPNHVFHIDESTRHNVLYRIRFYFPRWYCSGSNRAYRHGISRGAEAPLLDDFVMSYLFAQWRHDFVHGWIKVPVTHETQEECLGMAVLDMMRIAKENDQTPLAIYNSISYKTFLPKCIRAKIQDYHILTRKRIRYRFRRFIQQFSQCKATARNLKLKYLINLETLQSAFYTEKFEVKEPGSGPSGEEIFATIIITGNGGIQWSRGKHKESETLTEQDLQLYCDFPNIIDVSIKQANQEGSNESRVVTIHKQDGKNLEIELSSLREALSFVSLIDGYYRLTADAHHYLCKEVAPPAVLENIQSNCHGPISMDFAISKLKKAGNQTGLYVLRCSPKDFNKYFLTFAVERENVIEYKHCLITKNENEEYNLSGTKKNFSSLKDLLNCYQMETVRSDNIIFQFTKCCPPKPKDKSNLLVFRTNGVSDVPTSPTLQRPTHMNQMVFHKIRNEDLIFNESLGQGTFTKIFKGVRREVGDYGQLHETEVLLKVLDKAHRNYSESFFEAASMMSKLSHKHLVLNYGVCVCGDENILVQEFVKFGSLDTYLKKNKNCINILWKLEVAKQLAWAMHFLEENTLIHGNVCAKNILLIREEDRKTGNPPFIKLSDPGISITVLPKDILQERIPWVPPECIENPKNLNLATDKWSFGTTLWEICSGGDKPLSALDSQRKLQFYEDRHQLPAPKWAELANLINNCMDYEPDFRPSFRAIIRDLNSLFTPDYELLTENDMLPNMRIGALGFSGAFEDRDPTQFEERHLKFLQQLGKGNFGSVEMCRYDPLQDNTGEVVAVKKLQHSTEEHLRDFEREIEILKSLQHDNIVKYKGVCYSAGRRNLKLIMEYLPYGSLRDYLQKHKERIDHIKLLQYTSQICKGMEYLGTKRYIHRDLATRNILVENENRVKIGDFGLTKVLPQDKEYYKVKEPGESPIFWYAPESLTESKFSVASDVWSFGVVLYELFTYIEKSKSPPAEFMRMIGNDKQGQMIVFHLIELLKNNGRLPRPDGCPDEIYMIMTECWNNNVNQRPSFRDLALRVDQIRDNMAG

[2] = biological target: CYP450 2C19 (Homo sapiens, UniProt P33261); assay: CYP450 inhibition, 2C19; assay type: in vitro ADME
CYP450 2C19, sequence (P33261 whole entry): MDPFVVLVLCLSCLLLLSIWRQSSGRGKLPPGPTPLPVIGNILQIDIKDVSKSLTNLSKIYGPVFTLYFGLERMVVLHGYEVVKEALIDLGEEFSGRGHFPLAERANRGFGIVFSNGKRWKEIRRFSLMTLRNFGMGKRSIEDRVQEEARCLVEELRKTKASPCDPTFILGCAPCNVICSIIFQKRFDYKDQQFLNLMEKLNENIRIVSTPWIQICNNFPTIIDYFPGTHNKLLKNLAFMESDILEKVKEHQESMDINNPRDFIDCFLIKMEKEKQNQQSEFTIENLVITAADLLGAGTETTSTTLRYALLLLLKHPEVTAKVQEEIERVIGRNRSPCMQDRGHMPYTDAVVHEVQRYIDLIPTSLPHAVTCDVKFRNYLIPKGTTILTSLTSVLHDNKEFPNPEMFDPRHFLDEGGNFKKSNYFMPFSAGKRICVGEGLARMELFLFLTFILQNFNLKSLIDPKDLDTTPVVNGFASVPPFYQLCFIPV

[3] = Solubility (PBS/Fas/Fes); assay type: physicochemical
[4] = GSH; assay type: in vitro ADME
[5] = PPB, Mk; assay type: in vitro ADME; conditions: monkey, plasma
[6] = biological target: T1, CYP450 1A2 (Homo sapiens, UniProt P05177); assay: CYP450 inhibition, 1A2; assay type: in vitro ADME
T1 sequence (P05177 1-516): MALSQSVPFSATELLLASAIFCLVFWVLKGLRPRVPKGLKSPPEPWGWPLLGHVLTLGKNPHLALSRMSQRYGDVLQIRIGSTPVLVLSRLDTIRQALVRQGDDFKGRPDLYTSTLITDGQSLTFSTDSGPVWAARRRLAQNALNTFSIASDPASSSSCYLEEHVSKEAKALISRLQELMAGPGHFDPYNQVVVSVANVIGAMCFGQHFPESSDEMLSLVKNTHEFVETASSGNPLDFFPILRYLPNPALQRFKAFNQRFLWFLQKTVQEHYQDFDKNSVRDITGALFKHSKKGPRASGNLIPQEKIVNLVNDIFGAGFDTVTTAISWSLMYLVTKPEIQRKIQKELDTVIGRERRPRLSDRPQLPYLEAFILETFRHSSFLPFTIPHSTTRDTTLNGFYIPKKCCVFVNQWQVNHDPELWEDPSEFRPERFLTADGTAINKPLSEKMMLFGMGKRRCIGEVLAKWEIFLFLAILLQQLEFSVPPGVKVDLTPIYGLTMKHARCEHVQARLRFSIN

[7] = system: IL23-induced TYK2/phosphoSTAT3 (Tyr705) in Kit225 T cells; assay: Kit225 T cell assay for IL23-induced TYK2/phosphoSTAT3 activity; assay type: cell-based, human; conditions: Homo sapiens; Kit225 cells, 100 ng/mL IL23, AlphaLISA; read-out: IC50 IL23-induced-STAT3 Phosphorylation
Experimental: The cells were treated with serially diluted compounds for 1 hour and stimulated with 100 ng/mL human recombinant IL23 (R&D Systems) for 20 minutes. The treated cells were then lysed and cellular phosphorylated-STAT3 (Tyr705) levels were measured by AlphaLISA (PerkinElmer, Cat# ALSU-PST3) according to the manufacturer’s instructions.

[8] = biological target: T2, JAK1 JH2 pseudokinase domain (Homo sapiens, UniProt P23458); assay: KdELECT competition binding assay, JAK1 JH2; conditions: read-out: JAK Binding Selectivity (Kd) Pseudokinase Domain (JH2) JAK1
T2 construct: purchased Eurofins DiscoverX Corporation (contract assay)
T2 sequence (P23458 583-855 limits assumed): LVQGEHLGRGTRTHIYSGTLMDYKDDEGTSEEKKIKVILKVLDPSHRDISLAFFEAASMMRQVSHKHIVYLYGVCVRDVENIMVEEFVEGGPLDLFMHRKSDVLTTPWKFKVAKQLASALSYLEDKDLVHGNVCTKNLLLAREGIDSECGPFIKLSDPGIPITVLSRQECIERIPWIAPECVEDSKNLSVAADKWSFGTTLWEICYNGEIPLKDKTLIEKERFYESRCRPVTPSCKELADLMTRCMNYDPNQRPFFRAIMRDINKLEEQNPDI
Experimental: (§1) The KdELECT competition assays were performed to test the binding affinity of compounds to the JH1 kinase region or JH2 pseudokinase region in TYK2 or JAK by ligand competition with JH1 or JH2 protein segments. The assay was carried out at Eurofins DiscoverX Corporation following the established standard protocol (DiscoverX, San Diego, CA). In this assay, compounds that bind to the kinase or pseudokinase protein regions prevent the protein binding to the immobilized ligand and reduce the amount of kinase matter captured on the solid surface. […] Dissociation constants (Kds) for test compound-kinase interactions are calculated by measuring the amount of kinase captured on the solid support as a function of the test compound concentration. […] The ligated beads were blocked with excess biotin and washed with blocking buffer to remove unbound ligand and to reduce nonspecific binding. […] All reactions were performed in polypropylene 384-well plates with a final volume of 20 μL. […] The beads were then re-suspended in the elution buffer and incubated at room temperature with shaking for 30 minutes. The kinase concentration in the eluant was measured by qPCR. Two replicates were performed and averaged to obtain the Kd measurement.

[9] = LM T1/2, R; assay type: in vitro ADME; conditions: rat, liver microsomes
[10] = system: JAK1/3-dependent IL2-induced phosphorylation of STAT5 (Tyr694/699) in Kit225 cells; assay: JAK cellular selectivity assay, IL2-pSTAT5 (JAK1/3); assay type: cell-based; conditions: Homo sapiens; Kit225 cells; read-out: JAK Cellular Selectivity (IC50) IL2-pSTAT5 (JAK1/3)
Experimental: The cells were then ready for the assay after incubating for 2 hours in a humidified, 5% CO2 cell culture incubator at 37°C. […] The curve fit was generated, and statistical analysis was performed using GraphPad Prism. IC50 values were derived by non-linear regression analysis and defined as the compound concentration at which the response level was reduced to half of its maximum relative to a DMSO control.

[11] = LM T1/2, M; assay type: in vitro ADME; conditions: mouse, liver microsomes
[12] = system: IFNα-induced TYK2-mediated IRF activity in Jurkat-Dual T cells; assay: Jurkat T cell reporter assay for IFNα-induced TYK2-mediated IRF activity; assay type: cell-based; conditions: Homo sapiens, SEAP
Source text: Jurkat-Dual™ T cells (In vivogen, jktd-isnf) were purchased from In vivogen (San Diego, CA). The cells feature the dual-reporter system, with a Lucia luciferase gene driven by an interferon-β (IFN-β) minimal promoter fused to the NFκB consensus transcriptional response element and the c-Rel binding site, as well as a secreted embryonic alkaline phosphatase (SEAP) reporter gene under the control of an IFN-stimulated gene 54 (ISG54) minimal promoter in conjunction with five IFN-stimulated response elements. With the dual-reporter design, Jurkat-Dual™ cells allow the simultaneous investigation of both the NFκB pathway, by monitoring the Lucia luciferase, and the interferon regulatory factor (IRF) pathway, by assessing the activity of SEAP. In this study, the Jurkat-Dual™ T cells were plated at a sterilized U-shaped 96-well plate in RPMI (Thermo Fisher) containing 10% heat-inactivated Fetal Bovine Serum (FBS) (Thermo Fisher) and 100 U/mL Penicillin-Streptomycin (Thermo Fisher) at a density of 2.0 × 10^6/mL. Seeded cells were treated with serially diluted compounds and stimulated with 80 ng/mL human recombinant IFNα (Biolegend, # 592702) overnight in a humidified, 5% CO2 cell culture incubator at 37°C. Activity of SEAP was then detected from the cell cultured supernatant according to the manufacturer’s instructions.

[13] = biological target: T3, JAK1 JH1 kinase domain (Homo sapiens, UniProt P23458); assay: KdELECT competition binding assay, JAK1 JH1; conditions: read-out: JAK Binding Selectivity (Kd) Catalytical Domain (JH1) JAK1
T3 construct: purchased Eurofins DiscoverX Corporation (contract assay)
T3 sequence (P23458 875-1153 limits assumed): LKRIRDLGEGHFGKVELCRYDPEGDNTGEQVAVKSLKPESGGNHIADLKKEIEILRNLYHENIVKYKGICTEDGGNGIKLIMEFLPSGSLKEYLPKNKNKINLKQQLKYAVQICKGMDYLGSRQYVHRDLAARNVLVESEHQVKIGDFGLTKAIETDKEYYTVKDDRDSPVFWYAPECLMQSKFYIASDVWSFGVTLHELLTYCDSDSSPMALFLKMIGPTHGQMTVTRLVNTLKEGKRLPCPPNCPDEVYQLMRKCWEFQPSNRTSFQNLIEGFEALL
Experimental: as §1

[14] = biological target: T4, JAK2 JH1 kinase domain (Homo sapiens, UniProt O60674); assay: KdELECT competition binding assay, JAK2 JH1; conditions: read-out: JAK Binding Selectivity (Kd) Catalytical Domain (JH1) JAK2
T4 construct: purchased Eurofins DiscoverX Corporation (contract assay)
T4 sequence (O60674 849-1124 limits assumed): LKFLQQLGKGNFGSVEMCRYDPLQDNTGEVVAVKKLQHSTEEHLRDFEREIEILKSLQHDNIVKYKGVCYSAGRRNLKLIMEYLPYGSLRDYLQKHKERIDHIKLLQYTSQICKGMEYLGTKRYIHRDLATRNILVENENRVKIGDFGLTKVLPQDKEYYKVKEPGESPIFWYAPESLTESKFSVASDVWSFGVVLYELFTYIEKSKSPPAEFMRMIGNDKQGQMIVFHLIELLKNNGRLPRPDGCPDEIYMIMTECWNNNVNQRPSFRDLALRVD
Experimental: as §1

[15] = PPB, D; assay type: in vitro ADME; conditions: dog, plasma
[16] = FaSSIF, read-out: Solubility, Fas
[17] = FeSSIF (Fes [sic]), fessif, read-out: Solubility, Fes
[18] = PBS, aqueous buffer, read-out: Solubility, PBS

Structure (SMILES)	IC50 [1]	IC50 [2]	solubility [3, 16]	solubility [3, 17]	solubility [3, 18]	GSH [4]	fraction unbound [5]	IC50 [6]	IC50 [7]	Kd [8]	half-life [9]	IC50 [10]	half-life [11]	IC50 [12]	Kd [13]	Kd [14]	fraction unbound [15]
CNC(=O)c1nnc(NC(=O)N2CCC2)cc1Nc1cccc(-c2ncn(C)n2)c1OC [SHR8751]	> 10000 nM	> 30000 nM	60.7 µM (≈ 26.6 µg/mL)	60.9 µM (≈ 26.6 µg/mL)	17.6 µM (≈ 7.7 µg/mL)	negative	0.281	> 30000 nM	27 nM	3.7 ± 0.14 nM	> 67 min	> 10000 nM	> 139 min	48 nM	> 20000 nM	6500 ± 1700 nM	0.377
CNC(=O)c1nnc(NC(=O)C2CC2)c2[nH]c(-c3ccc(N)cc3OC)cc12 [SHR2396]	> 10000 nM	> 30000 nM	8.6 µM (≈ 3.27 µg/mL)	8.2 µM (≈ 3.12 µg/mL)	0.34 µM (≈ 0.129 µg/mL)	negative	0.0351	> 30000 nM	5.9 nM	0.52 ± 0.4 nM	> 67 min	1400 ± 1400 nM	31 min	9.7 nM	> 20000 nM	> 20000 nM	0.0434
[2H]C([2H])([2H])NC(=O)c1nnc(NC(=O)N2CCC2)cc1Nc1cccc(-c2ncn(C)n2)c1OC [SHR9332]	> 10000 nM	> 30000 nM	71.4 µM (≈ 31.5 µg/mL)	108 µM (≈ 47.6 µg/mL)	25.6 µM (≈ 11.3 µg/mL)	negative	0.231	> 30000 nM	79 nM	1.8 nM	> 67 min	> 10000 nM	49.8 min	55 nM	> 20000 nM	2000 nM	0.325
